Test system: NOMO1
Experiment: cell viability relative to DMSO control; higher = less cytotoxic
Details: 48 h
Outline: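 NOMO1 or SEM cells were plated at 500 cells/well and P12-Ichikawa cells at 1000 cells/well in 1536-well plates (5 μl), after each leukemia line had been adapted for at least four passages in each medium. Pin dosing delivered library compounds in DMSO at 11 threefold concentrations, 47 μM to 0.79 nM. CellTiter-Glo One luminescence was read after 48 h at 37°C. Viability is reported as a per-plate percentage of DMSO wells, with cell-free wells as background.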

[1] = RPMI 5 mM glucose + 10% dialyzed FBS, 0.000781 µM
[2] = RPMI 5 mM glucose + 10% dialyzed FBS, 0.00234 µM
[3] = RPMI 5 mM glucose + 10% dialyzed FBS, 0.00702 µM
[4] = RPMI 5 mM glucose + 10% dialyzed FBS, 0.0211 µM
[5] = RPMI 5 mM glucose + 10% dialyzed FBS, 0.0632 µM
[6] = RPMI 5 mM glucose + 10% dialyzed FBS, 0.19 µM
[7] = RPMI 5 mM glucose + 10% dialyzed FBS, 0.569 µM
[8] = RPMI 5 mM glucose + 10% dialyzed FBS, 1.71 µM
[9] = RPMI 5 mM glucose + 10% dialyzed FBS, 5.12 µM
[10] = RPMI 5 mM glucose + 10% dialyzed FBS, 15.4 µM
[11] = RPMI 5 mM glucose + 10% dialyzed FBS, 46.1 µM
[12] = HPLM + 10% dialyzed FBS, 0.000781 µM
[13] = HPLM + 10% dialyzed FBS, 0.00234 µM
[14] = HPLM + 10% dialyzed FBS, 0.00702 µM
[15] = HPLM + 10% dialyzed FBS, 0.0211 µM
[16] = HPLM + 10% dialyzed FBS, 0.0632 µM
[17] = HPLM + 10% dialyzed FBS, 0.19 µM
[18] = HPLM + 10% dialyzed FBS, 0.569 µM
[19] = HPLM + 10% dialyzed FBS, 1.71 µM
[20] = HPLM + 10% dialyzed FBS, 5.12 µM
[21] = HPLM + 10% dialyzed FBS, 15.4 µM
[22] = HPLM + 10% dialyzed FBS, 46.1 µM
[23] = RPMI 5 mM glucose + 10% FBS, 0.000781 µM
[24] = RPMI 5 mM glucose + 10% FBS, 0.00234 µM
[25] = RPMI 5 mM glucose + 10% FBS, 0.00702 µM
[26] = RPMI 5 mM glucose + 10% FBS, 0.0211 µM
[27] = RPMI 5 mM glucose + 10% FBS, 0.0632 µM
[28] = RPMI 5 mM glucose + 10% FBS, 0.19 µM
[29] = RPMI 5 mM glucose + 10% FBS, 0.569 µM
[30] = RPMI 5 mM glucose + 10% FBS, 1.71 µM
[31] = RPMI 5 mM glucose + 10% FBS, 5.12 µM
[32] = RPMI 5 mM glucose + 10% FBS, 15.4 µM
[33] = RPMI 5 mM glucose + 10% FBS, 46.1 µM

SMILES	cell viability [1] [%]	cell viability [2] [%]	cell viability [3] [%]	cell viability [4] [%]	cell viability [5] [%]	cell viability [6] [%]	cell viability [7] [%]	cell viability [8] [%]	cell viability [9] [%]	cell viability [10] [%]	cell viability [11] [%]	cell viability [12] [%]	cell viability [13] [%]	cell viability [14] [%]	cell viability [15] [%]	cell viability [16] [%]	cell viability [17] [%]	cell viability [18] [%]	cell viability [19] [%]	cell viability [20] [%]	cell viability [21] [%]	cell viability [22] [%]	cell viability [23] [%]	cell viability [24] [%]	cell viability [25] [%]	cell viability [26] [%]	cell viability [27] [%]	cell viability [28] [%]	cell viability [29] [%]	cell viability [30] [%]	cell viability [31] [%]	cell viability [32] [%]	cell viability [33] [%]
CCOC(=O)c1c(C)n(C)c2ccc(O)cc12	115	120	115	113	125	119	124	120	108	101	96.6	–	–	–	–	–	–	–	–	–	–	–	–	–	–	–	–	–	–	–	–	–	–
O=C(O)c1ccc(O)c2ncc(N3CCOCC3)cc12	98.1	101	111	104	107	94.2	126	102	91.2	104	81.5	90.9	108	99.9	103	99.3	101	109	105	97.2	83.6	18.9	93.9	91.1	92.7	92.1	89.4	86.3	87.5	86.2	85.4	79.3	73.8
Cc1cc(Nc2ncc3c(n2)N(C)C(=O)N(c2cc(NC(=O)c4cccc(C(F)(F)F)c4)ccc2C)C3)n(C)n1	113	115	123	134	134	132	115	60.2	38.7	32.7	17.7	90.6	134	123	116	134	111	90.5	56.7	32.2	25.9	7.8	99.6	111	132	156	132	130	146	70.6	43.8	29.6	10.7
COCCn1c2c([n+](Cc3cnccn3)c1C)C(=O)c1ccccc1C2=O	–	–	–	–	–	–	–	–	–	–	–	–	–	–	–	–	–	–	–	–	–	–	127	123	113	112	104	35.3	7.45	6.58	6.62	4.16	1.59
CC(C)(N)C(=O)N[C@H](COCc1ccccc1)C(=O)N1CCC2(CC1)CN([S+](C)(=O)[O-])c1ccccc12	–	–	–	–	–	–	–	–	–	–	–	–	–	–	–	–	–	–	–	–	–	–	117	122	132	124	123	123	122	115	113	109	110
COc1c(Cl)cc2c([nH]c3cnccc32)c1NC(=O)c1cccnc1C	84	105	103	96.1	98.9	105	115	116	98.2	104	101	115	100	110	105	123	124	122	115	108	102	89.4	99.8	102	98.4	101	101	108	111	108	98.2	102	99
CC(=O)N(C)C1(c2ccccc2)CCN(CCC[C@]2(c3ccc(Cl)c(Cl)c3)CCCN(C(=O)c3ccccc3)C2)CC1	110	112	114	115	106	115	100	60.3	16.9	10.3	5.1	116	124	128	117	123	104	58.4	25.1	9.73	10	4.11	106	109	122	126	128	122	111	65.5	15.3	8.99	5.76
CC(C)(N)c1ccc(-c2nc3ccccc3nc2-c2ccccc2)cc1	102	106	108	113	78.7	20.3	27.9	13.2	19.3	6.51	8.7	112	118	109	68.5	27.3	22.3	12.2	8.51	7.84	5.77	5.3	96.1	116	112	111	69.6	14.8	14.1	6.53	11.9	4.8	5.53
OC(=O)\C1=C\N(C2CC2)C3=CC(=C(F)C=C3C1=O)N4CCNCC4	112	132	119	116	120	122	117	123	88.1	63.5	33.9	108	117	119	129	113	127	118	134	64.4	47.5	22.5	116	126	104	118	119	113	128	118	90	75.1	23.5
